Laboratory results from paper PMC11237035, “Glutathione determines chronic myeloid leukemia vulnerability to an inhibitor of CMPK and TMPK” (Communications Biology, 2024).
Several values for one entry are separate records, joined by “and”; a condition that tells them apart may be missing. Identical values can stand only once.

Legend:
TCCS cells [1] = test: DNA fiber assay (replication speed), TCCS cells; assay type: cell-based, human; details: erastin 0.5 μM, 16 h
Method: (§1) After 3 days, cells were analyzed by viability assays.
(§2) The DNA fiber assay was performed as described previously. Briefly, cells were sequentially treated with the medium containing 25 μM of CldU (Sigma-Aldrich, C6891) and then 250 μM of IdU (Sigma-Aldrich, I7125) for 20 min. After washing, cells were suspended in PBS (1000 cells/ μL). 2 μL of cell suspension was spotted on slides. After 5 min, 10 μL spread solution (200 mM Tris-HCl, pH 7.5, 50 mM EDTA, and 0.5% SDS) was spotted on the cell droplet and spread on slides. The slides were then fixed with methanol/acetic acid (3:1), followed by denaturation with 2.5 M HCl. After blocking with 5% BSA in TBST, slides were stained with rat anti-BrdU antibody (which detects CldU but not IdU, OBT0030, 1:2000, AbDSerotec) and mouse anti-BrdU antibody (which detects IdU but not CldU, 7580, 1:1000, BD Biosciences) at 4 °C for overnight. The next day, slides were washed with TBST, followed by staining with the secondary antibodies of goat anti-rat IgG conjugated with TRITC (Jackson Lab) and goat anti-mouse IgG conjugated with FITC. Images of DNA fibers were acquired using a microscope (Olympus). The lengths of red- and green-labeled fibers were determined by FluoView3.0 software (Olympus).

KOPM28 cells [2] = test: GSH/GSSG-Glo measurement, KOPM28 cells; assay type: cell-based, human; details: for GSH level: KOPM28 cells, 16 h
Method: as §1
(§3) The GSH/GSSG-Glo™ Assay Kit (Promega, V6611) was used for luminescent-based measurement of cellular GSH and GSSG by Tecan Spark 10 microplate reader.

TCCS cells [3] = test: GSH/GSSG-Glo measurement, TCCS cells; assay type: cell-based, human; details: for GSH level: TCCS cells, 16 h
Method: as §1, §3

KOPM28 cells [4] = test: DNA fiber assay (replication speed), KOPM28 cells; assay type: cell-based, human; details: erastin 0.5 μM, 16 h
Method: as §1, §2

untransformed 32D cells [5] = test: DNA fiber assay (replication speed), untransformed 32D cells; assay type: cell-based, mouse; details: UK-5099 25 μM, 16 h
Method: (§4) The workflow of DNA fiber labeling (Right). The representative labeled fibers are shown below. Replication speed in kb/min was calculated by the measured length of IdU (green) linking to CldU (red) in μm with a conversion factor of 0.34 μm/kb divided by the duration of the labeling pulse (Scale bar = 10 μm). The gray triangle indicates the boundary between red fluorescence and green fluorescence. c The measurement of intracellular ROS by the fluorescence intensity of CellROX Green staining using flow cytometric analysis. Data are presented as mean intensity relative to untransformed 32D cells. d, e The measurement of GSSG and GSH. […] Schematic illustration of the metabolic path U-^13C glutamine incorporation into the GSH (left). Gray and white circles indicate ^13C-label, and unlabeled ^12C, respectively. The traced isotopologue abundance of GSH is shown (right).
(§5) The DNA fiber assay was performed as described previously. Briefly, cells were sequentially treated with the medium containing 25 μM of CldU (Sigma-Aldrich, C6891) and then 250 μM of IdU (Sigma-Aldrich, I7125) for 20 min. After washing, cells were suspended in PBS (1000 cells/ μL). 2 μL of cell suspension was spotted on slides. […] The lengths of red- and green-labeled fibers were determined by FluoView3.0 software (Olympus).

untransformed 32D cells [6] = test: GSH/GSSG-Glo measurement, untransformed 32D cells; assay type: cell-based, mouse; details: UK-5099 25 μM, 16 h
From the text: as §3

untransformed 32D cells [7] = test: CCK-8 cell viability assay, untransformed 32D cells; assay type: cell-based, mouse; details: 32D; UK-5099 alone (JMF4073 0); replicates
Method: After 72 h, viability assays were performed.
3 independent experiments. Asterisks denote ***p<0.001 from non-paired two-tailed

[8] = test system: T315I-Bcr-Abl-32D cells in C3H/HeNCrNarl mice; details: T315I-Bcr-Abl-32D mice, UK-5099 10 mg/kg i.p. daily for 14 days alone, vs vehicle
Method: Asterisks denote *p < 0.05, **p < 0.01, ***p < 0.001, or ****p < 0.0001 from unpaired two-tailed Student’s t-test or Log-rank (Mantel–Cox) test.
T315I-Bcr-Abl-transformed and untransformed 32D cells were treated with UK-5099 (25 μM) for 16 h. […] Data are represented as means ± S.D., n > 3 biological replicates.
The animal studies were approved by the biosafety committee at National Taiwan University and conformed to the national guidelines and regulations (IACUC # 20201063). Female C3H/HeNCrNarl mice were used at 6–8 weeks of age (National Laboratory Animal Center, Taiwan).
Mouse CML induction and in vivo therapy
The animal studies were approved by the biosafety committee at National Taiwan
University and conformed to the national guidelines and regulations (IACUC #
20201063). Female C3H/HeNCrNarl mice were used at 6-8 weeks of age (National
Laboratory Animal Center, Taiwan).
suspended in 200 μL of HBSS were injected into each mouse through the tail vein.
suspended in 200 μL of HBSS were tail-vein-injected.
For monitoring CML progress, mice blood was
collected in anticoagulation tubes by submandibular blood collection, followed by
lysing red blood cells with RBC lysis buffer (Invitrogen). After washing, the remaining
cells were suspended in 500 μL of HBSS and subjected to flow cytometry analysis
(FACScalibur, BD Bioscience) with CellQuest software.

T315I-Bcr-Abl-32D cells [9] = test: GSH/GSSG-Glo measurement, T315I-Bcr-Abl-32D cells; assay type: cell-based, mouse; details: T315I-Bcr-Abl cells, UK-5099 25 μM, 16 h
From the text: as §3

T315I-Bcr-Abl-32D cells [10] = test: dTTP/dCTP pools by RCA-qPCR in T315I-Bcr-Abl-32D cells; assay type: cell-based, mouse; details: T315I; replicates
Method: The methanol extracts were centrifuged
For chloroform extraction, same volume of
attomol of the annealed template-primer.
The RCA products were determined by
The thiophenol compound 3 was
(98.5%) after silica gel chromatography.

T315I-Bcr-Abl-32D cells [11] = test: DNA fiber assay (replication speed), T315I-Bcr-Abl-32D cells; assay type: cell-based, mouse; details: T315I-Bcr-Abl cells, UK-5099 25 μM, 16 h
Method: as §4, §5

T315I-Bcr-Abl-32D cells [12] = test: CCK-8 cell viability assay, T315I-Bcr-Abl-32D cells; assay type: cell-based, mouse; details: T315I-Bcr-Abl; UK-5099 alone (JMF4073 0); replicates
K562 cells = test: GSH/GSSG-Glo measurement, K562 cells; assay type: cell-based, human
Method: as §1, §3

CCOc1ccccc1-n1c(C(C)N2CCN(C(=O)COc3ccc(Cl)cc3)CC2)nc2ccccc2c1=O (stereo not drawn) [erastin]
replication stress (DNA fiber) (TCCS cells [1]): induced replication stress
GSH% relative to K562 in 7e (Figure 7f) (KOPM28 cells [2]; KOPM28, Erastin treated, per replicate): 6.981% and 5.472% and 15%
GSH level (KOPM28 cells [2]; erastin 0.5 μM): drastically reduced
GSH level (TCCS cells [3]; erastin 0.5 μM): drastically reduced
GSH% relative to K562 in 7e (Figure 7f) (TCCS cells [3]; TCCS, Erastin treated, per replicate): 12.1585% and 8.793% and 13.8%
replication stress (DNA fiber) (KOPM28 cells [4]): induced replication stress

N#C/C(=C\c1cn(-c2ccccc2)c2ccccc12)C(=O)O [UK-5099]
effect on replication stress, compared with T315I-Bcr-Abl cells (untransformed 32D cells [5]): less
effect on GSH reduction, compared with T315I-Bcr-Abl cells (untransformed 32D cells [6]): less
Figure 6c, viability relative to NT (=100) (untransformed 32D cells [7]): 104.358 and 105.293 and 83.4613
survival of leukemia mice [8]: not affected
GSH level (T315I-Bcr-Abl-32D cells [9]): reduce GSH levels
Figure 6d, dCTP relative to NT (=100) (T315I-Bcr-Abl-32D cells [10]): 73.8406 and 210.17 and 73.3898
Figure 6d, dTTP relative to NT (=100) (T315I-Bcr-Abl-32D cells [10]): 74.5764 and 216.09 and 77.7298
GSH% relative to K562 (Figure 7e) (KOPM28 cells [2]; KOPM28, UK-5099 treated, K562 vehicle = 100, per replicate): 180.441% and 154.066% and 117.536%
GSH level (KOPM28 cells [2]; UK-5099 50 μM): unchanged
replication fork progression (T315I-Bcr-Abl-32D cells [11]): slow replication fork progression
GSH level (TCCS cells [3]; UK-5099 50 μM): unchanged
GSH% relative to K562 (Figure 7e) (TCCS cells [3]; TCCS, UK-5099 treated, K562 vehicle = 100, per replicate): 96.7924% and 63.772% and 96.1621%
Figure 6c, viability relative to NT (=100) (T315I-Bcr-Abl-32D cells [12]): 99.9363 and 88.5988 and 102.123
GSH% relative to K562 (Figure 7e) (K562 cells; K562, UK-5099 treated, K562 vehicle = 100, per replicate): 52.9657% and 35.7607% and 66.83%
cellular level of GSH (K562 cells; K562 cells, UK-5099 50 μM, 16 h): bring down
